Reference: the RepoRT retention time repository

test: HILIC, Waters ACQUITY UPLC BEH Amide, 100 × 2.1 mm, 1.7 µm; A: water + 0.125% formic acid + 10 mM ammonium formate; B: 5% water + 95% acetonitrile + 0.125% formic acid + 10 mM ammonium formate; gradient (min/%B) 0/100 2/100 7.7/70 9.5/40 10.25/30 12.75/100 17/100; conditions: stereoisomer not certain

LC retention time [min]	Compound
5.11	O=C(O)C(=O)Cc1c[nH]c2ccccc12 [Indole-3-pyruvic acid]
2.25	O=C(O)C(O)Cc1c[nH]c2ccccc12 (stereo not drawn) [Indolelactic acid]
1.08	COc1ccc2c(c1)c(CC(=O)O)c(C)n2C(=O)c1ccc(Cl)cc1 [Indomethacin]
6.19	O=c1[nH]cnc2c1ncn2C1OC(CO)C(O)C1O (stereo not drawn) [Inosine]
3.33	Nc1c2c(nc3c1CCC3)CCCC2 [Ipidacrine]
0.94	CC(C)Oc1ccc2c(=O)c(-c3ccccc3)coc2c1 [Ipriflavone]
1.16	CCCCC1=NC2(CCCC2)C(=O)N1Cc1ccc(-c2ccccc2-c2nn[nH]n2)cc1 [Irbesartan]
5.03	CCc1c2c(nc3ccc(OC(=O)N4CCC(N5CCCCC5)CC4)cc13)-c1cc3c(c(=O)n1C2)COC(=O)C3(O)CC (stereo not drawn) [Irinotecan]
1.25	Nc1nc(N)nc(-c2cc(Cl)ccc2Cl)n1 [Irsogladine]
5.04	CC(C)CN [Isobutylamine]
1.77	CC(C)C(=O)O [Isobutyric acid]
7.18	CCC(C)C(N)C(=O)O (stereo not drawn) [Isoleucine]
7.19	OCC1OC(OCC2OC(O)C(O)C(O)C2O)C(O)C(O)C1O (stereo not drawn) [Isomaltose]
1.81	CC(C)=CCNc1ncnc2nc[nH]c12 [Isopentenyladenine]
6.02	COc1cc(-c2oc3cc(O)cc(O)c3c(=O)c2OC2OC(COC3OC(C)C(O)C(O)C3O)C(O)C(O)C2O)ccc1O (stereo not drawn) [Isorhamnetin-3-O-rutinoside]
4.49	COc1cc(-c2oc3cc(O)cc(O)c3c(=O)c2OC2OC(CO)C(O)C(O)C2O)ccc1O (stereo not drawn) [Isorhamnetin-3-glucoside]
5.36	CC(C)CC(=O)OC(CC(=O)[O-])C[N+](C)(C)C [Isovaleryl-L-carnitine]
6.41	Nc1nc2[nH]c(=O)cnc2c(=O)[nH]1 [Isoxanthopterin]
0.95	COC(=O)C1=C(C)NC(C)=C(C(=O)OC(C)C)C1c1cccc2nonc12 (stereo not drawn) [Isradipine]
3.65	COc1ccc(C(=O)NCc2ccc(OCCN(C)C)cc2)cc1OC [Itopride]
0.97	CCC(C)n1ncn(-c2ccc(N3CCN(c4ccc(OCC5COC(Cn6cncn6)(c6ccc(Cl)cc6Cl)O5)cc4)CC3)cc2)c1=O (stereo not drawn) [Itraconzaole]

LC retention time [min]	Compound
6.09	CC1OC(OCC2OC(Oc3c(-c4ccc(O)cc4)oc4cc(O)cc(O)c4c3=O)C(O)C(O)C2O)C(O)C(O)C1O (stereo not drawn) [Kaempferol-3-O-rutinoside]
1.4	O=c1c(O)c(-c2ccc(O)cc2)oc2cc(O)cc(O)c12 [Kaempferol]
1.73	CC(=O)N1CCN(c2ccc(OCC3COC(Cn4ccnc4)(c4ccc(Cl)cc4Cl)O3)cc2)CC1 (stereo not drawn) [Ketoconazole]
2.84	CC(C)C(=O)C(=O)O [Ketoisovaleric acid]
2.71	CN1CCC(=C2c3ccccc3CC(=O)c3sccc32)CC1 [Ketotifen]
2.04	COC1C(O)CC(=O)OC(C)CC=CC=CC(O)C(C)CC(CC=O)C1OC1OC(C)C(OC2CC(C)(O)C(OC(=O)CC(C)C)C(C)O2)C(N(C)C)C1O (stereo not drawn) [Kitasamycin]
6.15	O=C(O)c1cc(=O)c2ccccc2[nH]1 [Kynurenic acid]
6.98	Nc1ccccc1C(=O)CC(N)C(=O)O (stereo not drawn) [Kynurenine]
10.2	NC(CCC(=O)NC(CSSCC(N)C(=O)O)C(=O)NCC(=O)O)C(=O)O [L-Cysteine-glutathione disulfide]
8.73	NC(=O)NCCCC[C@H](N)C(=O)O [L-Homocitrulline]
0.94	CCOC(=O)C1=C(C)NC(C)=C(C(=O)OCC)C1c1ccccc1C=CC(=O)OC(C)(C)C [Lacidipine]
1.74	CC(O)C(N)=O (stereo not drawn) [Lactamide]
8.99	OCC(O)C(O)C(OC1OC(CO)C(O)C(O)C1O)C(O)CO (stereo not drawn) [Lactitol]
3.4	Nc1ccn(C2CSC(CO)O2)c(=O)n1 (stereo not drawn) [Lamivudine]
1.98	Nc1nnc(-c2cccc(Cl)c2Cl)c(N)n1 [Lamotrigine]
1.06	CC(C)OC(=O)CCCC=CCC1C(O)CC(O)C1CCC(O)CCc1ccccc1 (stereo not drawn) [Latanoprost]
3.63	CCCCCCCCCCCC(=O)OC(CC(=O)[O-])C[N+](C)(C)C [Lauroyl-L-carnitine]
0.98	N#Cc1ccc(C(c2ccc(C#N)cc2)n2cncn2)cc1 [Letrozol]
5	CC(C)CC(N)C(=O)NC(C)C(=O)O (stereo not drawn) [Leu-Ala]
8.86	CC(C)CC(N)C(=O)NC(CCCN=C(N)N)C(=O)O (stereo not drawn) [Leu-Arg]
7.32	CC(C)CC(N)C(=O)N1CCCC1C(=O)O (stereo not drawn) [Leu-Pro]

LC retention time [min]	Compound
7.08	CC(C)CC(N)C(=O)O (stereo not drawn) [Leucine]
2.95	c1ccc(C2CN3CCSC3=N2)cc1 (stereo not drawn) [Levamisole]
2.9	O=C(O)COCCN1CCN(C(c2ccccc2)c2ccc(Cl)cc2)CC1 (stereo not drawn) [Levocetirizine]
0.99	C#CC1(O)CCC2C3CCC4=CC(=O)CCC4C3CCC21CC (stereo not drawn) [Levonorgestrel]
4.37	CCN1CCCC1CNC(=O)c1cc(S(N)(=O)=O)ccc1OC (stereo not drawn) [Levosulpiride]
1.97	CCN(CC)CC(=O)Nc1c(C)cccc1C [Lidocaine]
0.92	C=C(C)C1CC=C(C)CC1 (stereo not drawn) [Limonene]
0.97	C=CC(C)(O)CCC=C(C)C (stereo not drawn) [Linalool]
1.15	CC(=O)NCC1CN(c2ccc(N3CCOCC3)c(F)c2)C(=O)O1 (stereo not drawn) [Linezolide]
3.1	CCCCCC=CCC=CCCCCCCCC(=O)OC(CC(=O)[O-])C[N+](C)(C)C (stereo not drawn) [Linoleoylcarnitine]
1.17	O=C1N(c2ccccc2)c2ccccc2C1(Cc1ccncc1)Cc1ccncc1 [Linopirdine]
1.25	NC(=O)CCCCC1CCSS1 (stereo not drawn) [Lipoamide]
1.3	O=C1CC(c2ccc(O)cc2)Oc2cc(O)ccc21 (stereo not drawn) [Liquiritigenin]
2.02	CN1C(CC(=O)c2ccccc2)CCCC1CC(O)c1ccccc1 (stereo not drawn) [Lobeline A]
1.91	CN(CCCN1c2ccccc2CCc2ccccc21)CC(=O)c1ccc(Cl)cc1 [Lofepramine]
2.65	CC(Oc1c(Cl)cccc1Cl)C1=NCCN1 (stereo not drawn) [Lofexidine]
1.7	COc1ccc(CN2CCN(C(c3ccc(F)cc3)c3ccc(F)cc3)CC2)c(OC)c1OC [Lomerizine]
1.09	CC(=O)CCCCn1cnc2c1c(=O)n(C)c(=O)n2C [Lomifylline]
1.11	CCOC(=O)N1CCC(=C2c3ccc(Cl)cc3CCc3cccnc32)CC1 [Loratadine]

Compound	LC retention time [min]
CS(=O)(=O)Nc1ccc(Cc2noc(-c3ccc4[nH]cc(CCN)c4c3)n2)cc1 [L-694,247]	5.25
CCC(C(N)=O)N1CCCC1=O (stereo not drawn) [Levetiracetam]	1.45
